# From patent publication US5602101A, “Antithrombotic agents” (priority 1994, dated 1997)
# Biological target: T1, tissue plasminogen activator (t-PA) (Homo sapiens, UniProt P00750)
# T1 construct: purchased American Diagnostics, Greenwich, Conn
# Assay: Serine protease inhibition, t-PA (chromogenic substrate), Kass
# Type: biochemical
# Conditions: substrate H-D-Ile-Pro-Arg-p-nitroanilide
# Protocol: (§1) The assay is carried out by mixing 50 μl buffer (0.03M Tris, 0.15M NaCl, pH 7.4), 25 μl of human thrombin solution (purified human thrombin Enzyme Research Laboratories, South Bend, Ind.) at 8 NIH units/ml and 25 μl of test compound in a solvent (50% aqueous methanol (v:v)). Then 150 μl of an aqueous solution of the chromogenic substrate (at 0.25 mg/ml) are added and the rates of hydrolysis of the substrate are measured by monitoring the reactions at 405 nm for the release of p-nitroaniline. Standard curves are constructed by plotting free thrombin concentration against hydrolysis rate. The hydrolysis rates observed with test compounds are then converted to "free thrombin" values in the respective assays by use of the standard curves. The bound thrombin (bound to test compound) is calculated by subtracting the amount of free thrombin observed in each assay from the known initial amount of thrombin used in the assay. The amount of free inhibitor in each assay is calculated by subtracting the number of moles of bound thrombin from the number of moles of added inhibitor (test compound).
# (§2) Kass is calculated for a range of concentrations of test compounds and the mean value is reported in units of liter per mole.
# (§3) By substantially following the procedures described above for human thrombin, and using other human blood coagulation system serine proteases, and using fibrinolytic system serine proteases, with the appropriate chromogenic substrate, identified below, selectivity of the compounds of the present invention with respect to the coagulation factor serine proteases and to the fibrinolytic serine proteases are evaluated as well as their substantial lack of interference with human plasma clot fibrinolysis.
# (§4) Human factors X, Xa, IXa, XIa, and xIIa are purchased from Enzyme Research Laboratories, South Bend, Ind.; human urokinase from Leo Pharmaceuticals, Denmark; and recombinant activated Protein C (aPC) is prepared at Eli Lilly and Co. substantially according to U.S. Pat. No. 4,981,952 incorporated by reference herein in its entirety. Chromogenic substrates: N-Benzoyl-Ile-Glu-Gly-Arg-p-nitroanilide (for factor Xa); N-Cbz-D-Arg-Gly-Arg-p-nitroanilide (for factor IXa assay as the factor Xa substrate) pyroglutamyl-Pro-Arg-p-nitroanilide (for factor XIa and for aPC); H-D-Pro-Phe-Arg-p-nitroanilide (for factor XIIa); and pyroglutamyl-Gly-Arg-p-nitroanilide (for urokinase); are purchased from KabiVitrum, Stockholm, Sweden, or from Midwest Biotech, Fishers, Indiana. Bovine trypsin is purchased from Worthington Biochemicals, Freehold, N.J., and human plasma kallikrein from Kabi Vitrum, Stockholm, Sweden. N-Benzoyl-Phe-Val-Arg-p-nitroanilide, the substrate for human thrombin and for trypsin, is synthesized according to procedures described above for the compounds of the present invention, known methods of peptide coupling from commercially available reactants, or was purchased from Midwest Biotech, Fishers, Ind. Human plasmin is purchased from Boehringer Mannheim, Indianapolis, Ind.; nt-PA is purchased as single chain activity reference from American Diagnostics, Greenwich, Conn.; modified-t-PA6 (mt-PA6) is prepared at Eli Lilly and Company by procedure known in the art (See, Burck, et al., J. Biol. Chem., 265, […] (1990). Plasmin chromogenic substrate H-D-Val-Leu-Lys-p-nitroanilide and tissue plasminegen activator (t-PA) substrate H-D-Ile-Pro-Arg-p-nitroanilide are purchased from Kabi Vitrum, Stockholm, Sweden.
# T1 sequence (P00750 36-562): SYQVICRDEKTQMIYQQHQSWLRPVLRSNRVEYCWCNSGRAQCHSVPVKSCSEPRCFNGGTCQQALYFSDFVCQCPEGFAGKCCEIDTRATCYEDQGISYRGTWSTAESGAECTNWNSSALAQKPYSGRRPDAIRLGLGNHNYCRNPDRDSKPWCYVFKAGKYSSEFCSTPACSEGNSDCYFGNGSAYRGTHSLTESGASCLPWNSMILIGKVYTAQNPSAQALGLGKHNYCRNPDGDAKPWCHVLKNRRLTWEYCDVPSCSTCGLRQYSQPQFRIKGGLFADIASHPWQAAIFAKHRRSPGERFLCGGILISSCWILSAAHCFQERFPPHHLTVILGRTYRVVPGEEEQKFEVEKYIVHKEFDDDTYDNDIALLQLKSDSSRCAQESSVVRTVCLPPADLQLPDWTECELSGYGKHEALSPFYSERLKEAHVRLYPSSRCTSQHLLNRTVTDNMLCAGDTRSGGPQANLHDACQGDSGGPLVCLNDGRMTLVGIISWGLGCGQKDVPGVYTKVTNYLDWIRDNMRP
row,Structure (SMILES),"Enzyme Kass, t-Pa [L/mol × 10^6]"
1,"Cl.N=C(N)NCCC[C@@H](C=O)NC(=O)[C@@H]1CCCN1C(=O)[C@@H](Cc1ccccc1)NS(=O)(=O)c1ccc(F)cc1F [Example 14, 2,4-F-PhSO2 -D-Phe-Pro-Arg-H-HCl]",2.4
2,"Cl.N=C(N)NCCC[C@@H](C=O)NC(=O)[C@@H]1CCCN1C(=O)[C@@H](Cc1ccccc1)NS(=O)(=O)c1ccc(C(=O)O)cc1 [Example 18, 4-(HO2 C)-C6 H4 SO2 -D-Phe-Pro-Arg-H.HCl]",1.1

# Biological target: T2, Bovine trypsin (Bos taurus, UniProt P00760)
# T2 construct: Bovine trypsin is purchased from Worthington Biochemicals, Freehold, N.J; purchased Worthington Biochemicals, Freehold, N.J
# T2 sequence (P00760 24-246): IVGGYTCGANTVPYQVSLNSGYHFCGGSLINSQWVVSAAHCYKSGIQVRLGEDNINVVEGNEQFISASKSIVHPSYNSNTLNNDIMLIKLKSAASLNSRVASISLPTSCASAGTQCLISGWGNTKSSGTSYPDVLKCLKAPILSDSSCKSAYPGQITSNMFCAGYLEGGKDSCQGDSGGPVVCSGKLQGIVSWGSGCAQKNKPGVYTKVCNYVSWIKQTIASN
# Assay: Serine protease inhibition, trypsin (chromogenic substrate), Kass
# Type: biochemical
# Conditions: substrate N-Benzoyl-Phe-Val-Arg-p-nitroanilide
# Protocol: as §1, §2, §3, §4
row,Structure (SMILES),"Enzyme Kass, Trypsin [L/mol × 10^6]"
1,"Cl.N=C(N)NCCC[C@@H](C=O)NC(=O)[C@@H]1CCCN1C(=O)[C@@H](Cc1ccccc1)NS(=O)(=O)c1ccc(F)cc1F [Example 14, 2,4-F-PhSO2 -D-Phe-Pro-Arg-H-HCl]",160
2,"Cl.N=C(N)NCCC[C@@H](C=O)NC(=O)[C@@H]1CCCN1C(=O)[C@@H](Cc1ccccc1)NS(=O)(=O)c1ccc(C(=O)O)cc1 [Example 18, 4-(HO2 C)-C6 H4 SO2 -D-Phe-Pro-Arg-H.HCl]",43

# Biological target: T3, human thrombin (Homo sapiens, UniProt P00734)
# T3 construct: purified human thrombin Enzyme Research Laboratories, South Bend, Ind; purchased Enzyme Research Laboratories, South Bend, Ind
# Assay: Inhibition of amidase activity of thrombin (chromogenic substrate), Kass
# Type: biochemical
# Conditions: substrate N-benzoyl-Phe-Val-Arg-p-nitroanilide, pH 7.4
# Protocol: as §1
# The Kass value is the hypothetical equilibrium constant for the reaction between thrombin and the test compound (I). [drawing 53]
# as §2
row,Structure (SMILES),"Enzyme Kass, Human Thrombin [L/mol × 10^6]"
1,"Cl.N=C(N)NCCC[C@@H](C=O)NC(=O)[C@@H]1CCCN1C(=O)[C@@H](Cc1ccccc1)NS(=O)(=O)c1ccc(F)cc1F [Example 14, 2,4-F-PhSO2 -D-Phe-Pro-Arg-H-HCl]",230
2,"Cl.N=C(N)NCCC[C@@H](C=O)NC(=O)[C@@H]1CCCN1C(=O)[C@@H](Cc1ccccc1)NS(=O)(=O)c1ccc(C(=O)O)cc1 [Example 18, 4-(HO2 C)-C6 H4 SO2 -D-Phe-Pro-Arg-H.HCl]",70

# Biological target: T4, Human plasmin (Homo sapiens, UniProt P00747)
# T4 construct: Human plasmin is purchased from Boehringer Mannheim, Indianapolis, Ind; purchased Boehringer Mannheim, Indianapolis, Ind
# Assay: Serine protease inhibition, plasmin (chromogenic substrate), Kass
# Type: biochemical
# Conditions: substrate H-D-Val-Leu-Lys-p-nitroanilide
# Protocol: as §1, §2, §3, §4
# T4 sequence (P00747 581-810 limits assumed): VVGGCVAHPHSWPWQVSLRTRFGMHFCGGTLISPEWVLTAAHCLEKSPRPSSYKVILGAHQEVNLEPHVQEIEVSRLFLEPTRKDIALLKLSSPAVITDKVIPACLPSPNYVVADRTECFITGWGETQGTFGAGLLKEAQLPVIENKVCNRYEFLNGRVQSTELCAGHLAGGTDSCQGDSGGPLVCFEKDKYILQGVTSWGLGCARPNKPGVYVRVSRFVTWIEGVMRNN
# T4 sequence (P00747 97-580 partner limits assumed): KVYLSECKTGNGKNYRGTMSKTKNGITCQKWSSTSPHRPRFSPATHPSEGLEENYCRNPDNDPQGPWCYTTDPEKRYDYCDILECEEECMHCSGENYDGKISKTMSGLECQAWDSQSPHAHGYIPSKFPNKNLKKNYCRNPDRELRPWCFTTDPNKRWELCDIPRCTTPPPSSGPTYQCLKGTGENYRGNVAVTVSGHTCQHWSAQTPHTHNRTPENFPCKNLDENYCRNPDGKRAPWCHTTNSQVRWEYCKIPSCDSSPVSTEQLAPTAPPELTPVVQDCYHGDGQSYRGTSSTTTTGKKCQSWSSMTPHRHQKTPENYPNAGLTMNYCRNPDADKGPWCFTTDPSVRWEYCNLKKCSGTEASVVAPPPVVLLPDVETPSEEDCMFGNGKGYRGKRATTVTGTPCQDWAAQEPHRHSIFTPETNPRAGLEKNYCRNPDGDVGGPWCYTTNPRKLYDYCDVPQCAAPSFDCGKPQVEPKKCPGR
row,Structure (SMILES),"Enzyme Kass, Plasmin [L/mol × 10^6]"
1,"Cl.N=C(N)NCCC[C@@H](C=O)NC(=O)[C@@H]1CCCN1C(=O)[C@@H](Cc1ccccc1)NS(=O)(=O)c1ccc(F)cc1F [Example 14, 2,4-F-PhSO2 -D-Phe-Pro-Arg-H-HCl]",25
2,"Cl.N=C(N)NCCC[C@@H](C=O)NC(=O)[C@@H]1CCCN1C(=O)[C@@H](Cc1ccccc1)NS(=O)(=O)c1ccc(C(=O)O)cc1 [Example 18, 4-(HO2 C)-C6 H4 SO2 -D-Phe-Pro-Arg-H.HCl]",7.0

# Biological target: T5, factor Xa (Homo sapiens, UniProt P00742)
# T5 construct: Human factors X, Xa, IXa, XIa, and xIIa are purchased from Enzyme Research Laboratories; purchased Enzyme Research Laboratories, South Bend, Ind
# Assay: Serine protease inhibition, factor Xa (chromogenic substrate), Kass
# Type: biochemical
# Conditions: substrate N-Benzoyl-Ile-Glu-Gly-Arg-p-nitroanilide
# Protocol: as §1, §2, §3, §4
# T5 sequence (P00742 235-488 limits assumed): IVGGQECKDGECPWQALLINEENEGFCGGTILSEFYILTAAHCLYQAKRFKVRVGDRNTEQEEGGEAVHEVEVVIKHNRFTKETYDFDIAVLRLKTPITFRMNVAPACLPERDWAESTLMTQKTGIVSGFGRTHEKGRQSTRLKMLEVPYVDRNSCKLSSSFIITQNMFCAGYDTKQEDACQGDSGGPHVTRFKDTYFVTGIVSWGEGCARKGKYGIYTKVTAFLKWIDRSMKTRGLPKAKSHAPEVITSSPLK
# T5 sequence (P00742 41-179 partner limits assumed): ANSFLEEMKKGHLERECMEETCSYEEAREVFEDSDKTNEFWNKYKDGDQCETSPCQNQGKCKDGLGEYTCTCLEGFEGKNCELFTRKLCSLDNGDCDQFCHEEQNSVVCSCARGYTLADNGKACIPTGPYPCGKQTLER
row,Structure (SMILES),"Enzyme Kass, Xa [L/mol × 10^6]"
1,"Cl.N=C(N)NCCC[C@@H](C=O)NC(=O)[C@@H]1CCCN1C(=O)[C@@H](Cc1ccccc1)NS(=O)(=O)c1ccc(F)cc1F [Example 14, 2,4-F-PhSO2 -D-Phe-Pro-Arg-H-HCl]",11
2,"Cl.N=C(N)NCCC[C@@H](C=O)NC(=O)[C@@H]1CCCN1C(=O)[C@@H](Cc1ccccc1)NS(=O)(=O)c1ccc(C(=O)O)cc1 [Example 18, 4-(HO2 C)-C6 H4 SO2 -D-Phe-Pro-Arg-H.HCl]",2.0

# Test system: Human Plasma
# Assay: Anticoagulation in human plasma, thrombin time (TT)
# Type: biochemical
# Conditions: concentration required to double the thrombin time
# Protocol: (§5) Dog plasma and rat plasma are obtained from conscious mixed-breed hounds (either sex, Hazelton-LRE, Kalamazoo, Mich., U.S.A.) or from anesthetized male Sprague-Dawley rats (Harlan Sprague-Dawley, Inc., Indianapolis, Ind., U.S.A.) by venipuncture into 3.8 percent citrate. Fibrinogen is prepared from in-date ACD human blood as the fraction I-2 according to previous procedures and specifications. Smith, Biochem. Chem. […] Human fibrinogen is also purchased as 98 percent pure/plasmin free from American Diagnostics, Greenwich, Conn. Coagulation reagents ACTIN, Thromboplastin, and Human plasma are from Baxter Healthcare Corp., Dade Division, Miami, Fla. Bovine thrombin from Parke-Davis (Ann Arbor, Mich.) is used for coagulation assays in plasma. Coagulation assay procedures are as previously described. Smith, et al., Thrombosis Research, 5, 163-174 (1988). A CoAScreener coagulation instrument (American LABor, Inc.) is used for all coagulation assay measurements. The prothrombin time (PT) is measured by adding 0.05 ml saline and 0.05 ml Thromboplastin-C reagent to 0.05 ml test plasma. The activated partial thromboplastin time (APTT) is measured by incubation of 0.05 ml test plasma with 0.05 ml Actin reagent for 120 seconds followed by 0.05 ml CaCl2 (0.02M). […] The compounds of formula I are added to human or animal plasma over a wide range of concentrations to determine prolongation effects on the APTT, PT, and TT assays. Linear extrapolations are performed to estimate the concentrations required to double the clotting time for each assay.
row,Structure (SMILES),"2 × Clotting time, TT [ng/mL]"
1,"Cl.N=C(N)NCCC[C@@H](C=O)NC(=O)[C@@H]1CCCN1C(=O)[C@@H](Cc1ccccc1)NS(=O)(=O)c1ccc(F)cc1F [Example 14, 2,4-F-PhSO2 -D-Phe-Pro-Arg-H-HCl]",21
2,"Cl.N=C(N)NCCC[C@@H](C=O)NC(=O)[C@@H]1CCCN1C(=O)[C@@H](Cc1ccccc1)NS(=O)(=O)c1ccc(C(=O)O)cc1 [Example 18, 4-(HO2 C)-C6 H4 SO2 -D-Phe-Pro-Arg-H.HCl]",120

# Test system: Human Plasma
# Assay: Anticoagulation in human plasma, prothrombin time (PT)
# Type: biochemical
# Conditions: concentration required to double the PT
# Protocol: as §5
row,Structure (SMILES),"2 × Clotting time, PT"
1,"Cl.N=C(N)NCCC[C@@H](C=O)NC(=O)[C@@H]1CCCN1C(=O)[C@@H](Cc1ccccc1)NS(=O)(=O)c1ccc(F)cc1F [Example 14, 2,4-F-PhSO2 -D-Phe-Pro-Arg-H-HCl]",940 ng/mL
2,"Cl.N=C(N)NCCC[C@@H](C=O)NC(=O)[C@@H]1CCCN1C(=O)[C@@H](Cc1ccccc1)NS(=O)(=O)c1ccc(C(=O)O)cc1 [Example 18, 4-(HO2 C)-C6 H4 SO2 -D-Phe-Pro-Arg-H.HCl]","3,000 ng/ML"

# Test system: not listed separately
# Assay: Index of bioavailability (plasma TT AUC, p.o. vs i.v.)
# Conditions: rats, adjusted for dose
# Protocol: Male Sprague Dawley rats (350-425 gm, Harlan Sprague Dawley Inc., Indianapolis, Ind.) are anesthetized with xylazine (20 mg/kg, s.c.) and ketamine (120 mg/kg, s.c.) and maintained on a heated water blanket (37° C.). The jugular vein(s) is cannulated to allow for infusions.
# Plasma thrombin time (TT) and activated partial thromboplastin time (APTT) are measured with a fibrometer. Blood is sampled from a jugular catheter and collected in syringe containing sodium citrate (3.8%, 1 part to 9 parts blood). To measure TT, rat plasma (0.1 ml) is mixed with saline (0.1 ml) and bovine thrombin (0.1 ml, 30 U/ml in TRIS buffer; Parke Davis) at 37° C. For APTT, plasma (0.1 ml) and APTT solution (0.1 ml, Organon Teknika are incubated for 5 minutes (37° C.) and CaCl2 (0.01 ml, 0,025M) is added to start coagulation. Assays are done in duplicate and averaged.
# The time course of the effect of the thrombin inhibitor upon TT is determined after i.v bolus administration to anesthetized rats and after oral treatment of fasted conscious rats. Due to limitations of blood volume and the number of points required to determine the time course from time of treatment to the time when the response returns to pretreatment values, two populations of rats are used. Each sample population represents alternating sequential time points. The average TT over the time course is used to calculate area under the curve (AUC). The index of bioavailability is calculated by the formula shown below and is expressed as percent relative activity.
# The area under the curve (AUC) of the plasma TT time course is determined and adjusted for the dose. This index of bioavailability is termed "% Relative Activity" and is calculated as [formula]
# Compound solutions are prepared fresh daily in normal saline and are injected as a bolus or are infused starting 15 min before and continuing throughout the experimental perturbation which is 15 minutes in the arteriovenous shunt model and 60 minutes in the FeCl3 model of arterial injury and in the spontaneous thrombolysis model. Bolus injection volume is 1 ml/kg for i.v., and 5 ml/kg for p.o. and infusion volume is 3 ml/hr.
row,Structure (SMILES),"Index of Bioavailability, % Relative Activity [%]"
1,"Cl.N=C(N)NCCC[C@@H](C=O)NC(=O)[C@@H]1CCCN1C(=O)[C@@H](Cc1ccccc1)NS(=O)(=O)c1ccc(F)cc1F [Example 14, 2,4-F-PhSO2 -D-Phe-Pro-Arg-H-HCl]",6
2,"Cl.N=C(N)NCCC[C@@H](C=O)NC(=O)[C@@H]1CCCN1C(=O)[C@@H](Cc1ccccc1)NS(=O)(=O)c1ccc(C(=O)O)cc1 [Example 18, 4-(HO2 C)-C6 H4 SO2 -D-Phe-Pro-Arg-H.HCl]",13

# Test system: Human Plasma
# Assay: Anticoagulation in human plasma, activated partial thromboplastin time (APTT)
# Type: biochemical
# Conditions: concentration required to double the APTT
# Protocol: as §5
row,Structure (SMILES),"2 × Clotting time, APTT"
1,"Cl.N=C(N)NCCC[C@@H](C=O)NC(=O)[C@@H]1CCCN1C(=O)[C@@H](Cc1ccccc1)NS(=O)(=O)c1ccc(F)cc1F [Example 14, 2,4-F-PhSO2 -D-Phe-Pro-Arg-H-HCl]",350 ng/mL
2,"Cl.N=C(N)NCCC[C@@H](C=O)NC(=O)[C@@H]1CCCN1C(=O)[C@@H](Cc1ccccc1)NS(=O)(=O)c1ccc(C(=O)O)cc1 [Example 18, 4-(HO2 C)-C6 H4 SO2 -D-Phe-Pro-Arg-H.HCl]","1,200 ng/ML"
